Data from patent US11427783B2, “Perfuming compositions” (Firmenich SA, priority 2016, dated 2022).
Read-outs that look alike come from different tables or passages of the source.

Experiments:
[1] = Log P (n-octanol/water) of perfuming compounds
[2] = Volatility of perfuming compounds in air; type: physicochemical
[3] = n-octanol/water, perfuming compounds having a fruity note (Table 6)
[4] = Table 6, perfuming compounds having a fruity note
[5] = Table 8, perfuming compounds having a sweet note
[6] = Table 9, perfuming compounds having a gourmand note
[7] = Table 5, perfuming compounds having a green note
[8] = Table 10, perfuming compounds having a woody note
[9] = perfuming compounds having a fruity note (Table 6)

Compound: CC1CC(C)(c2ccccc2)CO1 (racemic)
- logP (physchem; n-octanol/water): 3.02
- Log P (n-octanol/water) [1, 3]: 3.02

Compound: C=CCCC(=O)C1=CCCC(C)(C)C1 [1-(5,5-dimethyl-1-cyclohexen-1-yl)-4-penten-1-one]
- logP (physchem; n-octanol/water): 3.89
- Log P (n-octanol/water) [1, 4]: 3.89

Compound: O=C(Cc1ccccc1)OCCc1ccccc1 [2-PHENYLETHYL PHENYLACETATE]
- logP (physchem): 3.59
- Log P (n-octanol/water) ([1]; Table 7, citrus note): 3.59
- Log P (n-octanol/water) [1, 5]: 3.59
- Log P (n-octanol/water) [1, 6]: 3.59

Compound: CCCCCCOC(=O)c1ccccc1O [HEXYL 2-HYDROXYBENZOATE]
- logP (physchem; n-octanol/water): 5.55
- Log P (n-octanol/water) [1, 4]: 5.55
- Log P (n-octanol/water) ([1]; Table 7, citrus note): 5.55

Compound: CC(=O)OCC=C(C)C [3-methyl-2-buten-1-yl acetate]
- logP (physchem; n-octanol/water): 2.19
- Log P (n-octanol/water) [1, 3]: 2.19

Compound: CC(C)(O)CCC1CCCCC1 [4-CYCLOHEXYL-2-METHYL-2-BUTANOL]
- logP (physchem; n-octanol/water): 3.93
- Log P (n-octanol/water) ([1]; Table 7, citrus note): 3.93

Compound: C/C=C(\C)C(=O)OCCCCCC [hexyl (2E)-2-methyl-2-butenoate]
- logP (physchem; n-octanol/water): 4.8
- Log P (n-octanol/water) [1, 5]: 4.80
- Log P (n-octanol/water) [1, 3]: 4.80

Compound: CC(=O)OCC=C(C)CCC=C(C)C (mixture of isomers) [GERANYL ACETATE (A) + NERYL ACETATE (B)]
- Log P (n-octanol/water) [1, 7]: 3.99
- Volatility [2, 7]: 85.23 μg/l air

Compound: CCCCCC(=O)OCC [ETHYL HEXANOATE]
- logP (physchem; n-octanol/water): 3.12
- Log P (n-octanol/water) [1, 5]: 3.12
- Log P (n-octanol/water) [1, 6]: 3.12
- Log P (n-octanol/water) [1, 3]: 3.12

Compound: CCCC(=O)OCC [ETHYL BUTANOATE]
- logP (physchem; n-octanol/water): 2.03
- Log P (n-octanol/water) [1, 3]: 2.03

Compound: CCC(C)c1nccnc1OC (stereo not shown) [PYRAZOBUTYLE]
- Log P (n-octanol/water) [1, 7]: 2.88
- Volatility [2, 7]: 1617.21 μg/l air

Compound: CC(=O)OC(C)CCC=C(C)CCC=C(C)C (stereo not shown) [1,5,9-TRIMETHYL-4,8-DECADIENYL ACETATE]
- logP (physchem; n-octanol/water): 5.28
- Log P (n-octanol/water) [1, 4]: 5.28

Compound: CCC(=O)OCc1ccccc1 [BENZYL PROPANOATE]
- logP (physchem; n-octanol/water): 2.35
- Log P (n-octanol/water) [1, 4]: 2.35

Compound: CC1=C[C@H](C)[C@H]2[C@H](CCC(C)(C)[C@H]2O)C1 (racemic)
- logP (physchem; n-octanol/water): 5.24
- Log P (n-octanol/water) [1, 4]: 5.24

Compound: CC(=O)OC(c1ccccc1)C(Cl)(Cl)Cl (racemic) [(+−)-2,2,2-TRICHLORO-1-PHENYLETHYL ACETATE]
- logP (physchem; n-octanol/water): 3.2
- Log P (n-octanol/water) [1]: 3.20

Compound: CC1(C)C2C[C@H]3CCC(=O)C=C3[C@@H]1C2
- Log P (n-octanol/water) [1, 8]: 3.00
- Volatility (μg/l air) [2, 8]: 4.86 μg/l air

Compound: CCCCC/C=C\C=C\C(=O)OCC [ethyl (2E,4Z)-2,4-decadienoate]
- logP (physchem; n-octanol/water): 4.69
- Log P (n-octanol/water) [1, 4]: 4.69

Compound: CCCCCC/C(C=O)=C\c1ccccc1 [(2E)-2-benzylideneoctanal]
- logP (physchem; n-octanol/water): 4.86
- Log P (n-octanol/water) [1, 4]: 4.86

Compound: CCCCCCOC(C)=O [HEXYL ACETATE]
- logP (physchem; n-octanol/water): 3.09
- Log P (n-octanol/water) [1, 3]: 3.09

Compound: (2,2-DIMETHOXYETHYL)BENZENE
- Log P (n-octanol/water) [1, 7]: 2.10
- Volatility [2, 7]: 456.97 μg/l air

Compound: CCCC(C)=CCOC(C)=O (mixture of isomers)
- Log P (n-octanol/water) [1, 7]: 3.11
- Log P (n-octanol/water) [1, 3]: 3.11
- Volatility [2, 7]: 4131.05 μg/l air
- Volatility [2, 9]: 4131.05 μg/l air

Compound: CC(=O)C=CC1C(C)CCC(C)C1(C)C (racemic)
- Log P (n-octanol/water) [1, 8]: 4.62
- Volatility (μg/l air) [2, 8]: 20.50 μg/l air

Compound: CC/C=C\CCOC(=O)C/C=C\CC [(3Z)-3-hexen-1-yl (3Z)-3-hexenoate]
- logP (physchem; n-octanol/water): 4.22
- Log P (n-octanol/water) [1, 5]: 4.22
- Log P (n-octanol/water) [1, 6]: 4.22
- Log P (n-octanol/water) [1, 3]: 4.22

Compound: CC(=O)O[C@@H]1C(C)(C)CCC[C@]12CC=C(C)C[C@H]2C (racemic)
- logP (physchem; n-octanol/water): 6.44
- Volatility (μg/l air) [2, 8]: 8.25 μg/l air

Compound: C=CCCCCCCCCO [9-DECEN-1-OL]
- logP (physchem; n-octanol/water): 3.7
- Log P (n-octanol/water) ([1]; Table 7, citrus note): 3.70

Compound: C/C=C/c1ccc(OC(C)=O)c(OC)c1 [(E)-2-METHOXY-4-(1-PROPENYL)PHENYL ACETATE]
- logP (physchem; n-octanol/water): 2.56
- Log P (n-octanol/water) ([1]; Table 7, citrus note): 2.56

Compound: CCCCCCCCC1CCC(=O)O1 (racemic) [(+−)-5-octyldihydro-2(3H)-furanone]
- logP (physchem; n-octanol/water): 3.82
- Volatility (μg/l air) [2, 4]: 1.44 μg/l air

Compound: CCCCCCCC=O [OCTANAL]
- logP (physchem; n-octanol/water): 2.94
- Volatility [2, 7]: 4147.61 μg/l air

Compound: COC(C)(C)[C@H]1CC=C(C)CC1
- logP (physchem; n-octanol/water): 4.59
- Volatility [2, 7]: 993.39 μg/l air

Compound: O=Cc1ccccc1 [BENZALDEHYDE]
- logP (physchem): 1.33
- Log P (n-octanol/water) [1, 5]: 1.33

Compound: C/C=C(\C)C(=O)OCC/C=C\CC
- logP (physchem; n-octanol/water): 3.96
- Volatility [2, 7]: 168.78 μg/l air

Compound: C/C=C/c1ccc(OC)cc1 [1-methoxy-4-[(1E)-1-propen-1-yl]benzene]
- logP (physchem): 3.58
- Volatility (μg/l air) [2, 5]: 184.60 μg/l air
- Volatility (μg/l air) [2, 6]: 184.60 μg/l air

Compound: CCCCCCC=O [HEPTANAL]
- logP (physchem; n-octanol/water): 2.15
- Volatility [2, 7]: 22184.00 μg/l air

Compound: CC(CO)c1ccccc1 (racemic) [(+−)-2-phenyl-1-propanol]
- logP (physchem; n-octanol/water): 1.74
- Volatility [2, 7]: 142.19 μg/l air

Compound: CCCC(O)CC[C@@H]1[C@@H](C)CCCC1(C)C (mixture of isomers)
- logP (physchem; n-octanol/water): 5.42
- Volatility (μg/l air) [2, 8]: 2.34 μg/l air

Compound: CCCCCCOC(=O)C(C)C [hexyl 2-methylpropanoate]
- logP (physchem; n-octanol/water): 4.31
- Log P (n-octanol/water) [1, 3]: 4.31

Compound: CCCCCC/C=C/C(=O)OC [methyl (2E)-2-nonenoate]
- logP (physchem; n-octanol/water): 4.05
- Log P (n-octanol/water) [1, 3]: 4.05

Compound: CC1=CCC(CCC(C)C(C)O)C1(C)C (racemic)
- logP (physchem; n-octanol/water): 4.68
- Volatility (μg/l air) [2, 8]: 5.22 μg/l air

Compound: CC(C)C(=O)OCCOc1ccccc1 [2-phenoxyethyl 2-methylpropanoate]
- logP (physchem; n-octanol/water): 2.82
- Log P (n-octanol/water) [1, 4]: 2.82

Compound: CC(=O)OC1CCC2C(C)(C)CCCC2(C)C1 (stereo not shown) [5,5,8a-trimethyldecahydro-2-naphthalenyl acetate]
- logP (physchem; n-octanol/water): 5.5
- Volatility (μg/l air) [2, 8]: 14.41 μg/l air

Compound: O=C(OCc1ccccc1)c1ccccc1 [BENZYL BENZOATE]
- logP (physchem; n-octanol/water): 3.64
- Log P (n-octanol/water) ([1]; Table 7, citrus note): 3.64

Compound: CC/C=C\CCOC(=O)c1ccccc1 [(3Z)-3-hexen-1-yl benzoate]
- logP (physchem; n-octanol/water): 4.21
- Log P (n-octanol/water) [1, 4]: 4.21
- Log P (n-octanol/water) ([1]; Table 7, citrus note): 4.21

Compound: CCOC(=O)C(C)CC (racemic) [(+−)-ethyl 2-methylbutanoate]
- logP (physchem; n-octanol/water): 2.58
- Log P (n-octanol/water) [1, 3]: 2.58

Compound: CC/C=C\C[C@H]1C(=O)CC[C@@H]1CC(=O)OC (racemic)
- logP (physchem; n-octanol/water): 2.33
- Volatility (μg/l air) [2, 4]: 1.59 μg/l air

Compound: CC1CCC2C(C)(C)C3CC12CCC3(C)O (racemic)
- logP (physchem): 5.39
- Volatility (μg/l air) [2, 8]: 11.83 μg/l air

Compound: CCCCCCOC(=O)CCCCC [HEXYL HEXANOATE]
- logP (physchem; n-octanol/water): 5.56
- Volatility (μg/l air) [2, 4]: 105.52 μg/l air

Compound: COC1(C)CCC23CC1C(C)(C)C2CCC3C (racemic) [(+−)-8-methoxycedrane]
- Log P (n-octanol/water) [1, 8]: 7.59
- Volatility (μg/l air) [2, 8]: 42.22 μg/l air

Compound: CC1(C)[C@@H]2CC[C@@]1(C)C(=O)C2
- Log P (n-octanol/water) [1, 3]: 2.50
- Volatility [2, 9]: 555.04 μg/l air

Compound: CCCCCC1C(=O)CCC1CC(=O)OC (single isomer, unassigned; (+))
- Log P (n-octanol/water) [1, 8]: 2.95
- Volatility (μg/l air) [2, 8]: 1.71 μg/l air

Compound: CC(=O)/C=C/C1C(C)=CCCC1(C)C (racemic)
- logP (physchem): 4.06
- Volatility [2, 7]: 68.11 μg/l air

Compound: CC/C(=C\C[C@H]1CC=C(C)C1(C)C)CO
- logP (physchem; n-octanol/water): 4.44
- Volatility (μg/l air) [2, 8]: 2.75 μg/l air

Compound: CC(C)(C)C1CCC(=O)CC1 [4-(2-methyl-2-propanyl)cyclohexanone]
- logP (physchem; n-octanol/water): 2.77
- Volatility (μg/l air) [2, 8]: 755.28 μg/l air

Compound: C=CC1(C)CCCC(C)(C)O1 (racemic)
- logP (physchem; n-octanol/water): 3.59
- Volatility [2, 7]: 23116.66 μg/l air

Compound: CCOC(C)OC1CCCCCCCCCCC1 (racemic) [(+−)-(1-ethoxyethoxy)cyclododecane]
- logP (physchem; n-octanol/water): 6.68
- Volatility (μg/l air) [2, 8]: 5.04 μg/l air

Compound: CC/C=C\CCCCCO [(Z)-6-NONEN-1-OL]
- logP (physchem): 3.44
- logP (physchem; n-octanol/water): 3.44
- Volatility ([2]; Table 4, watery note): 6.91 μg/l air
- Volatility [2, 7]: 6.91 μg/l air

Compound: CC1(C)CC=C(CCC=O)CC1
- logP (physchem; n-octanol/water): 3.3
- Volatility [2, 7]: 417.92 μg/l air

Compound: CC(C)[C@@H]1CC[C@@H](C)CC1=NO
- logP (physchem; n-octanol/water): 2.81
- Volatility [2, 7]: 22.29 μg/l air

Compound: CC1CCC2(O1)C(C)(C)CCCC2(C)O (racemic)
- Log P (n-octanol/water) [1, 8]: 3.51
- Volatility (μg/l air) [2, 8]: 84.04 μg/l air
